Patent EP0908457B1, “3-(1,2-benzisothiazol- and isoxazol-5-Y1)-2,4(1H,3H)-pyrimidinedione or thione and 3-(1,2-benzisothiazol- and isoxazol-5-y1)-4(3H)-pyrimidinone or thione herbicidal agents” (BASF AKTIENGESELLSCHAFT, priority 1997, dated 1999)

What was measured:
Sagittaria pygmaea, L. = assay: Preemergence weed control under flooded paddy conditions, SAGPY (Arrowhead (Pygmaea)); type: in vivo; details: preemergence, flooded paddy, rated three to four weeks after treatment; as to herbicidal effect rating, SAGPY: meaning of each grade not given here
[1] = system: Cyperus serotinus, Rottb.; assay: Preemergence weed control under flooded paddy conditions, CYPSE (Flatsedge); type: in vivo; details: preemergence, rated three to four weeks after treatment; as to herbicidal effect rating, CYPSE: meaning of each grade not given here
Cyperus iria = assay: Preemergence weed control under flooded paddy conditions, CYPIR (Rice Flatsedge); type: in vivo; details: preemergence, flooded paddy, rated three to four weeks after treatment; as to herbicidal effect rating, CYPIR: meaning of each grade not given here
[2] = system: Monochoria vaginalis, Presl.; assay: Preemergence weed control under flooded paddy conditions, MOOVA (Monochoria); type: in vivo; details: preemergence, flooded paddy, rated three to four weeks after treatment; as to herbicidal effect rating, MOOVA: meaning of each grade not given here
[3] = system: Oryza sativa, (L.) Tebonnet; assay: Rice tolerance to post-transplant applications under flooded paddy conditions (Example 187), ORYSAT (Rice, Tebonnet); details: rated three to four weeks after treatment
[4] = system: Echinochloa oryzoides (Ard.) Fritsch.; assay: Preemergence weed control under flooded paddy conditions, ECHORC (Watergrass (Calif.)); type: in vivo; details: preemergence, flooded paddy, rated three to four weeks after treatment; as to herbicidal effect rating, ECHORC: meaning of each grade not given here

Cn1c(C(F)(F)F)cc(=O)n(-c2ccc3snc(C(C#N)=Cc4ccc[nH]4)c3c2)c1=O [Example 598, 1,2-Benzisothiazole-3-acetonitrile, 5-[3,6-dihydro-3-methyl-2,6-dioxo-4-(trifluoromethyl)-1(2H)-pyrimidinyl]-alpha-(pyrrol-2-ylmethylene)-]
7.0: herbicidal effect rating, MOOVA ([2]; Rate 0.1250 kg/ha) | herbicidal effect rating, MOOVA ([2]; Rate 0.2500 kg/ha)
2.0: herbicidal effect rating, CYPIR (Cyperus iria; Rate 0.1250 kg/ha)
3.0: herbicidal effect rating, CYPIR (Cyperus iria; Rate 0.2500 kg/ha) | herbicidal effect rating ORYSAT ([3]; Rate 0.1250 kg/ha) | herbicidal effect rating ORYSAT ([3]; Rate 0.2500 kg/ha)
0.0: herbicidal effect rating, SAGPY (Sagittaria pygmaea, L.; Rate 0.0320 kg/ha) | herbicidal effect rating, SAGPY (Sagittaria pygmaea, L.; Rate 0.0620 kg/ha) | herbicidal effect rating, SAGPY (Sagittaria pygmaea, L.; Rate 0.1250 kg/ha) | herbicidal effect rating, SAGPY (Sagittaria pygmaea, L.; Rate 0.2500 kg/ha) | herbicidal effect rating, CYPSE ([1]; Rate 0.0320 kg/ha) | herbicidal effect rating, CYPSE ([1]; Rate 0.2500 kg/ha) | herbicidal effect rating, CYPIR (Cyperus iria; Rate 0.0320 kg/ha) | herbicidal effect rating, CYPIR (Cyperus iria; Rate 0.0620 kg/ha) | herbicidal effect rating ORYSAT ([3]; Rate 0.0320 kg/ha) | herbicidal effect rating ORYSAT ([3]; Rate 0.0620 kg/ha) | herbicidal effect rating, ECHORC ([4]; Rate 0.0320 kg/ha) | herbicidal effect rating, ECHORC ([4]; Rate 0.0620 kg/ha) | herbicidal effect rating, ECHORC ([4]; Rate 0.1250 kg/ha) | herbicidal effect rating, ECHORC ([4]; Rate 0.2500 kg/ha)

Cn1c(C(F)(F)F)cc(=O)n(-c2ccc3snc(C(C)(C)C(=O)NS(C)(=O)=O)c3c2)c1=O [Example 488, 1,2-Benzisothiazole-3-acetamide, 5-[3,6-dihydro-3-methyl-2,6-dioxo-4-(trifluoromethyl)-1(2H)-pyrimidinyl]-alpha,alpha-dimethyl-N-(methylsulfonyl)-]
3.0: CYPIR herbicidal rating (Cyperus iria; 0.0320 kg/ha) | CYPIR herbicidal rating (Cyperus iria; 0.0620 kg/ha) | ORYSAT herbicidal rating (rice tolerance) ([3]; 0.0320 kg/ha) | ORYSAT herbicidal rating (rice tolerance) ([3]; 0.0620 kg/ha)
9.0: MOOVA herbicidal rating ([2]; 0.0620 kg/ha) | MOOVA herbicidal rating ([2]; 0.1250 kg/ha) | MOOVA herbicidal rating ([2]; 0.2500 kg/ha)
0.0: SAGPY herbicidal rating (Sagittaria pygmaea, L.; 0.0320 kg/ha) | SAGPY herbicidal rating (Sagittaria pygmaea, L.; 0.0620 kg/ha) | SAGPY herbicidal rating (Sagittaria pygmaea, L.; 0.1250 kg/ha) | SAGPY herbicidal rating (Sagittaria pygmaea, L.; 0.2500 kg/ha) | CYPSE herbicidal rating ([1]; 0.0620 kg/ha) | CYPSE herbicidal rating ([1]; 0.1250 kg/ha) | ECHORC herbicidal rating ([4]; 0.0320 kg/ha) | ECHORC herbicidal rating ([4]; 0.0620 kg/ha) | ECHORC herbicidal rating ([4]; 0.1250 kg/ha) | ECHORC herbicidal rating ([4]; 0.2500 kg/ha)
5.0: CYPIR herbicidal rating (Cyperus iria; 0.2500 kg/ha)
4.0: CYPIR herbicidal rating (Cyperus iria; 0.1250 kg/ha) | ORYSAT herbicidal rating (rice tolerance) ([3]; 0.1250 kg/ha) | ORYSAT herbicidal rating (rice tolerance) ([3]; 0.2500 kg/ha)
7.0: MOOVA herbicidal rating ([2]; 0.0320 kg/ha)

CO/N=C/c1nsc2ccc(-n3c(=O)cc(C(F)(F)F)n(C)c3=O)cc12 [Example 277, 1,2-Benzisothiazole-3-carboxaldehyde, 5-[3,6-dihydro-3-methyl-2,6-dioxo-4-(trifluoromethyl)-1(2H)-pyrimidinyl]-, 3-(O-methyloxime), (E)-]
2.0: CYPSE herbicidal effect rating ([1]; Rate 0.0320 kg/ha)
9.0: SAGPY herbicidal effect rating (Sagittaria pygmaea, L.; Rate 0.1250 kg/ha) | SAGPY herbicidal effect rating (Sagittaria pygmaea, L.; Rate 0.2500 kg/ha) | SAGPY herbicidal effect rating (Sagittaria pygmaea, L.; Rate 0.5000 kg/ha) | CYPSE herbicidal effect rating ([1]; Rate 0.0620 kg/ha) | CYPSE herbicidal effect rating ([1]; Rate 0.1250 kg/ha) | CYPSE herbicidal effect rating ([1]; Rate 0.2500 kg/ha) | CYPSE herbicidal effect rating ([1]; Rate 0.5000 kg/ha) | CYPIR herbicidal effect rating (Cyperus iria; Rate 0.0320 kg/ha) | CYPIR herbicidal effect rating (Cyperus iria; Rate 0.0620 kg/ha) | CYPIR herbicidal effect rating (Cyperus iria; Rate 0.1250 kg/ha) | CYPIR herbicidal effect rating (Cyperus iria; Rate 0.2500 kg/ha) | CYPIR herbicidal effect rating (Cyperus iria; Rate 0.5000 kg/ha) | MOOVA herbicidal effect rating ([2]; Rate 0.0320 kg/ha) | MOOVA herbicidal effect rating ([2]; Rate 0.0620 kg/ha) | MOOVA herbicidal effect rating ([2]; Rate 0.1250 kg/ha) | MOOVA herbicidal effect rating ([2]; Rate 0.2500 kg/ha) | MOOVA herbicidal effect rating ([2]; Rate 0.5000 kg/ha) | ORYSAT herbicidal effect rating ([3]; Rate 0.5000 kg/ha) | ECHORC herbicidal effect rating ([4]; Rate 0.1250 kg/ha) | ECHORC herbicidal effect rating ([4]; Rate 0.2500 kg/ha) | ECHORC herbicidal effect rating ([4]; Rate 0.5000 kg/ha)
8.0: SAGPY herbicidal effect rating (Sagittaria pygmaea, L.; Rate 0.0620 kg/ha) | ORYSAT herbicidal effect rating ([3]; Rate 0.2500 kg/ha)
6.0: SAGPY herbicidal effect rating (Sagittaria pygmaea, L.; Rate 0.0320 kg/ha)
8.6: ECHORC herbicidal effect rating ([4]; Rate 0.0620 kg/ha)
5.0: ORYSAT herbicidal effect rating ([3]; Rate 0.0320 kg/ha)
7.0: ORYSAT herbicidal effect rating ([3]; Rate 0.0620 kg/ha) | ORYSAT herbicidal effect rating ([3]; Rate 0.1250 kg/ha) | ECHORC herbicidal effect rating ([4]; Rate 0.0320 kg/ha)
